One assay has as its system C57BL/6J mice. The assay can be described thus: Needle injury thrombosis model. It is filed as in vivo, mouse. Particulars: A1–E1 5 mg per kg i.v. bolus twice 30 min apart, argatroban 2 mg per kg bolus + 12 mg per kg infusion over 60 min.
The target of another assay is T1, human α-thrombin (Homo sapiens, UniProt P00734).
T1 construct: human α-thrombin (Haematologic Technologies, HCT0020); purchased Haematologic Technologies HCT0020
Description: Michaelis Menten determination of KM of the fluorogenic substrate. In kind it is biochemical. Particulars: without inhibitor, variation of [substrate]; R2 0.98. Here is the method: Inhibition assays were performed using 0.2 nM enzyme, 20 μM substrate and increasing concentrations of inhibitor. The concentration of each inhibitor variant was determined using the absorbance of the PNA at 260 nm, as measured by NanoDrop. All reactions were performed at 37 °C in 50 mM Tris-HCl (pH 8.0), 50 mM NaCl and 1 mg ml^–1 bovine serum albumin in black 96-well microtiter plates (Thermo Fisher Scientific, 267342). Reaction progress was monitored by excitation at 339 nm and emission at 439 nm using a SpectraMax or Tecan Spark Plate Reader. Dose–response curves were used to determine the half-maximal inhibitory concentrations (IC50) using Prism 8.0 (GraphPad Software). For each inhibitor, the reactions were performed in triplicate, together with control reactions in the absence of enzyme. The initial velocity was calculated from the slope of the first 10 min of the assay. The curves were normalized to the well without inhibitor, where the initial velocity was set to 100% activity.
MALDI-TOF; m/z found: 1202.95.
5. Thrombin Inhibition Assay
Supplementary Figure 2: Thrombin Fluorogenic Assay
The assay was performed as described in the Online Methods section.
To convert IC50 values to Ki values, KM was determined: The assay described above was performed
without inhibitor but with variation of [substrate]. The Michaelis Menten plot was obtained, and KM […]

Assay [1] has as its target Biotin-PNA (8-mer) ACAACTGC
Description: SPR of PNA hybridization. In kind it is binding. Particulars: 25 °C. Here is the method: SPR experiments were performed on a Biacore T200 instrument (GE Healthcare) at 25 °C in PBS-P+ buffer (10× stock; Cytiva Life Sciences, 28995084). Biotin-PNA (8-mer) was immobilized on a Streptavidin Series S sensor chip (Cytiva Life Sciences, 29104992). Before immobilization, the two channels were conditioned with 1 M NaCl in 50 mM NaOH. After stabilization, the compound (solution in PBS-P+) was flowed over one of the flow cells of the sensor chip at a concentration of 50 nM at a flow rate of 10 μl min^−1 with a response unit target of 500. Biotin-PNA (8-mer) reached a response unit value of 513.7. The system (not including the flow cells) was washed with 50% isopropanol in 1 M NaCl and 50 mM NaOH after each ligand injection. Kinetic measurements consisted of injections (association, 400 s; dissociation, 450 s; flow rate, 30 μl min^−1) of decreasing concentrations of PNA (4-, 6- and 8-mer; twofold cascade dilutions from the starting concentration). The chip was regenerated between cycles by one injection of regeneration solution (50 mM NaOH) for 10 s at a flow rate of 20 μl min^−1, followed by a 10-s stabilization period. Binding was measured as resonance units over time after blank subtraction, and the data were interpreted using Biacore T200 software (version 3.2). All measurements were performed in duplicate. The KD values were calculated based on steady-state affinity (1:1 binding).

Description for C57BL/6J mice: For intravital mouse studies, male mice aged between 5 and 8 weeks old (15–20 g) were used.
A clinical preparation of argatroban (Argatra/Exembol) was purchased from Mitsubishi Tanabe Pharma (Germany) and prepared in sterile saline with 25% (vol/vol) propylene glycol. Synthesized PNA inhibitors and PNA inhibitors + antidote solutions were prepared in sterile saline at a concentration of 2 mg ml^–1. C57BL/6J male mice (15–25 g) were anesthetized with ketamine (150 mg per kg (body weight)) and xylazine (15 mg per kg (body weight)), supplemented with oxygen and subjected to intravital needle injury, as previously described[42]. […] Following each injury, platelet thrombus formation and fibrin generation were monitored over a 15-min period using a confocal intravital microscopy platform (Nikon A1R-Si with an Apo LWD, ×40/1.15-NA water immersion objective; sequential excitation: 488-, 561- and 638-nm lasers; emission: 525/50-, 595/50- and 700/75-nm filters) and NIS Elements Advanced Research acquisition software. […]
The signal obtained from DyLight 649-conjugated anti-GP1bβ for each xyz stack in a time series was thresholded to create a mask. The total signal (arbitrary units) from Alexa Fluor 546-conjugated anti-fibrin within this mask (that is, the fibrin signal within the thrombus) for each time point was then quantified using NIS Elements software (Nikon). […]

Take `CC1CNc2c(cccc2S(=O)(=O)N[C@@H](CCCNC(=N)N)C(=O)N2CC[C@@H](C)C[C@@H]2C(=O)O)C1` (stereo partly shown) [argatroban]: the “fibrin formation and thrombus size” value with C57BL/6J mice was “significant decreases in fibrin formation and thrombus size”.

By Km is commonly meant the substrate concentration at which the rate is half of its maximum. For “phe-Pro-Arg-Coumarin [(S)-1-(D-phenylalanyl)-N-((S)-5-guanidino-1-((4-methyl-2-oxo-2H-chromen-7-yl)amino)-1-oxopentan-2-yl)pyrrolidine-2-carboxamide, substrate of the thrombin assay]”, at human α-thrombin, the Km was 2420 nM and the Vmax stood at 435.8.

One may read the Kd as a measure of binding affinity in units of concentration. Higher therefore signals a looser complex. For the compound CAGT, in assay [1], binding was characterised by a dissociation constant (Kd) of 4.14 µM.
